The assay concerns the target T1, rat B1R (bradykinin receptor 1) (Rattus norvegicus, UniProt P97583).
T1 construct: expressed in transfected cells; host or cells: CHO K1 cells
T1 sequence (P97583 1-337): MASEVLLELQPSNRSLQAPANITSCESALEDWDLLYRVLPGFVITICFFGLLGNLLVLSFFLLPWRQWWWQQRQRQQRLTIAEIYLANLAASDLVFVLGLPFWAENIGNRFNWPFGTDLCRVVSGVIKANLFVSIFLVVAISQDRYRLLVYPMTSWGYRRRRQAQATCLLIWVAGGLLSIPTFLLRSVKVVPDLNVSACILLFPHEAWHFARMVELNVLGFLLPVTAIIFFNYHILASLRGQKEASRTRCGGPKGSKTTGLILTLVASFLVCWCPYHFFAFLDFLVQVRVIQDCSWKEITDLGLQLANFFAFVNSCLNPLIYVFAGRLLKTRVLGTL
In words: FLIPR Ca2+ assay (Fluo-4) on CHO K1 cells stably transfected with the B1R gene of the rat (rB1R cells): % inhibition at 10 μM / IC50, agonist Des-Arg9-bradykinin. The assay is classed as cell-based. The settings on record: CHO-K1, rat B1R. The method in brief:
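Stable CHO K1 lines, Fluo-4 dye, probenecid-containing buffer. Cpd 10 μM or dose range, 10–20 min, then EC80 agonist (h: Lys-Des-Arg9-BK; r: Des-Arg9-BK). Readout peak FC; % inhibition vs max; IC50 from n=2–3, N≥2.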

Take `O=C(NC1CCc2ccc(C(=O)N3CCC4(CCN(Cc5cc(F)ccc5F)CC4)C3)cc21)c1ccccc1Cl` (centres unmarked) [IND_CC-543, 2-Chloro-N-[6-[8-[(2,5-difluoro-phenyl)-methyl]-2,8-diazaspiro[4.5]decane-2-carbonyl]-2,3-dihydro-1H-inden-1-yl]-benzamide]: the inhibition at 10 µM amounted to 102%. Under `Cc1ccc(C(=O)NC2CC(C)(C)c3ccc(C(=O)N4CCC5(CC4)CCN(c4ccncc4)CC5)cc32)c(F)c1` (centres unmarked) [IND_CC-318, N-[3,3-Dimethyl-6-(3-pyridin-4-yl-3,9-diazaspiro[5.5]undecane-9-carbonyl)-1,2-dihydro-inden-1-yl]-2-fluoro-4-methyl-benzamide] stands 100%; under `O=C(NC1CCc2ccc(C(=O)N3CCC4(CCN(c5ccncc5)CC4)C3)cc21)C1CCCC1` (centres unmarked) [IND_CC-394, N-[6-(8-Pyridin-4-yl-2,8-diazaspiro[4.5]decane-2-carbonyl)-2,3-dihydro-1H-inden-1-yl]-cyclopentanecarboxylic acid amide], 103%; under `Cn1cccc1CN1CCC2(CC1)CCN(C(=O)c1ccc3c(c1)C(NC(=O)c1ccccc1Cl)CC3)CC2` (centres unmarked) [IND_CC-512, 2-Chloro-N-[6-[9-[(1-methyl-1H-pyrrol-2-yl)-methyl]-3,9-diazaspiro[5.5]undecane-3-carbonyl]-2,3-dihydro-1H-inden-1-yl]-benzamide], 92%. With `CCCC(=O)N(C)C1CCc2ccc(C(=O)N3CCC4(CC3)CCN(c3ccncc3)CC4)cc21` (centres unmarked) [IND_CC-410, N-Methyl-N-[6-(9-pyridin-4-yl-3,9-diazaspiro[5.5]undecane-3-carbonyl)-2,3-dihydro-1H-inden-1-yl]-butyramide] the figure was 97%; with `O=C(c1ccc2c(c1)C(N(C(=O)c1ccccc1Cl)C1CC1)CC2)N1CCC2(CCN(S(=O)(=O)c3ccc(Cl)s3)CC2)C1` (centres unmarked) [IND_CC-615, 2-Chloro-N-[6-[8-[(5-chloro-thiophen-2-yl)sulfonyl]-2,8-diazaspiro[4.5]-decane-2-carbonyl]-2,3-dihydro-1H-inden-1-yl]-N-cyclopropyl-benzamide], 67%; with `O=C(NC1CCc2ccc(C(=O)N3CCC4(CC3)CCN(c3ccc(C(F)(F)F)cc3)CC4)cc21)c1cc(F)c(F)cc1Cl` (centres unmarked) [IND_CC-230, 2-Chloro-4,5-difluoro-N-[6-[9-[4-(trifluoromethyl)-phenyl]-3,9-diazaspiro[5.5]undecane-3-carbonyl]-2,3-dihydro-1H-inden-1-yl]-benzamide], 104%. `O=C(c1ccc2c(c1)C(N(C(=O)c1ccccc1Cl)C1CC1)CC2)N1CCC2(CCN(Cc3c(F)cccc3F)CC2)C1` (centres unmarked) [IND_CC-520, 2-Chloro-N-cyclopropyl-N-[6-[8-[(2,6-difluoro-phenyl)-methyl]-2,8-diazaspiro[4.5]decane-2-carbonyl]-2,3-dihydro-1H-inden-1-yl]-benzamide]: the inhibition at 10 µM is 72%. As for `O=C(c1ccc2c(c1)C(NS(=O)(=O)Cc1cccc(Cl)c1)CC2)N1CCC2(CCN(c3ccncc3)CC2)C1` (centres unmarked) [IND_CC-360, 1-(3-Chlorophenyl)-N-[6-(8-pyridin-4-yl-2,8-diazaspiro[4.5]decane-2-carbonyl)-2,3-dihydro-1H-inden-1-yl]-methanesulfonic acid amide], the inhibition at 10 µM worked out at 69%.

On to `O=C(NC1CCc2ccc(C(=O)N3CCC4(CCN(Cc5ccc6nccnc6c5)CC4)C3)cc21)c1cc(C(F)(F)F)ccc1Cl` (centres unmarked) [IND_CC-685, 2-Chloro-N-[6-[8-(quinoxalin-6-yl-methyl)-2,8-diazaspiro[4.5]decane-2-carbonyl]-2,3-dihydro-1H-inden-1-yl]-5-(trifluoromethyl)-benzamide], for which the inhibition at 10 µM is 68%. `COc1ccc(C(=O)N(C)C2CCc3ccc(C(=O)N4CCC5(CC4)CCN(c4ccncc4)CC5)cc32)c(Cl)c1` (centres unmarked) [IND_CC-201, 2-Chloro-4-methoxy-N-methyl-N-[6-(9-pyridin-4-yl-3,9-diazaspiro[5.5]undecane-3-carbonyl)-2,3-dihydro-1H-inden-1-yl]-benzamide]: the inhibition at 10 µM is 99%. With `O=C(NC1CCc2ccc(C(=O)N3CCC4(CCN(Cc5ccc6nccnc6c5)CC4)CC3)cc21)c1cccc(Cl)c1Cl` (centres unmarked) [IND_CC-755, 2,3-Dichloro-N-[6-[9-(quinoxalin-6-yl-methyl)-3,9-diazaspiro[5.5]undecane-3-carbonyl]-2,3-dihydro-1H-inden-1-yl]-benzamide] the figure was 92%; with `Cc1cc(F)cc(C)c1S(=O)(=O)NC1CCc2ccc(C(=O)N3CCC4(CC3)CCN(c3ccncc3)CC4)cc21` (centres unmarked) [IND_CC-355, 4-Fluoro-2,6-dimethyl-N-[6-(9-pyridin-4-yl-3,9-diazaspiro[5.5]undecane-3-carbonyl)-2,3-dihydro-1H-inden-1-yl]-benzenesulfonic acid amide], 65%. Take `O=C(NC1CCc2ccc(C(=O)N3CCC4(CC3)CCN(c3ccc(C(F)(F)F)cc3)CC4)cc21)c1c(Cl)cccc1Cl` (centres unmarked) [IND_CC-286, 2,6-Dichloro-N-[6-[9-[4-(trifluoromethyl)-phenyl]-3,9-diazaspiro[5.5]undecane-3-carbonyl]-2,3-dihydro-1H-inden-1-yl]-benzamide]: the inhibition at 10 µM is 90%. With `CC(C)(C)CC(=O)NC1CCc2ccc(C(=O)N3CCC4(CC3)CCN(c3ccncc3)C4)cc21` (centres unmarked) [IND_CC-373, 3,3-Dimethyl-N-[6-(2-pyridin-4-yl-2,8-diazaspiro[4.5]decane-8-carbonyl)-2,3-dihydro-1H-inden-1-yl]-butyramide] the figure was 102%.

Consider `O=C(NC1CCc2ccc(C(=O)N3CCC4(CCN(Cc5csnn5)CC4)CC3)cc21)c1c(F)cccc1Cl` (centres unmarked) [IND_CC-797, 2-Chloro-6-fluoro-N-[6-[9-([1,2,3]thiadiazol-4-yl-methyl)-3,9-diazaspiro[5.5]undecane-3-carbonyl]-2,3-dihydro-1H-inden-1-yl]-benzamide], for which the inhibition at 10 µM is 91%. As for `Cc1c(CN2CCC3(CC2)CCN(C(=O)c2ccc4c(c2)C(NC(=O)c2cccc(Cl)c2Cl)CC4)C3)cnn1C` (centres unmarked) [IND_CC-722, 2,3-Dichloro-N-[6-[8-[(1,5-dimethyl-1H-pyrazol-4-yl)-methyl]-2,8-diazaspiro[4.5]decane-2-carbonyl]-2,3-dihydro-1H-inden-1-yl]-benzamide], the inhibition at 10 µM came to 81%. Under `COc1ccc(C(=O)NC2CCc3ccc(C(=O)N4CCC5(CC4)CCN(c4ccncc4)C5)cc32)c(F)c1` (centres unmarked) [IND_CC-298, 2-Fluoro-4-methoxy-N-[6-(2-pyridin-4-yl-2,8-diazaspiro[4.5]decane-8-carbonyl)-2,3-dihydro-1H-inden-1-yl]-benzamide] stands 74%; under `O=C(CCC1CCCC1)NC1CCc2ccc(C(=O)N3CCC4(CCN(c5ccncc5)CC4)C3)cc21` (centres unmarked) [IND_CC-413, 3-Cyclopentyl-N-[6-(8-pyridin-4-yl-2,8-diazaspiro[4.5]decane-2-carbonyl)-2,3-dihydro-1H-inden-1-yl]-propionamide], 103%. Under `O=C(NC1CCc2ccc(C(=O)N3CCC4(CCN(Cc5ccc(F)cc5Cl)CC4)CC3)cc21)c1cc(C(F)(F)F)ccc1Cl` (centres unmarked) [IND_CC-669, 2-Chloro-N-[6-[9-[(2-chloro-4-fluoro-phenyl)-methyl]-3,9-diazaspiro[5.5]-undecane-3-carbonyl]-2,3-dihydro-1H-inden-1-yl]-5-(trifluoromethyl)benzamide] stands 60%.
